This is an account of results in patent US20260053861A1, “CELL COMPOSITIONS AND METHODS OF USING THE SAME” (THE REGENTS OF THE UNIVERSITY OF CALIFORNIA, priority 2022, published 2026).

Counter-ions that a name gives are not always drawn. Residues, ends and D or L forms follow the SMILES beside them.

In one test the test system is hPSC-SCs.
Conditions: not given
The compound `COC(=O)C1=CCCN(C)C1` [Arecoline hydrobromide] yielded a z.score.t of −0.7049. On the same count and under the same terms, next, `C=C1[C@@H]2CC[C@H]3[C@]4(C)C[C@H](O[C@@H]5O[C@H](CO)[C@@H](OS(=O)(=O)O)[C@H](OS(=O)(=O)O)[C@H]5OC(=O)CC(C)C)C[C@@H](C(=O)O)[C@H]4CC[C@]3(C2)[C@@H]1O` [Atractyloside potassium salt]: −0.7376; `CN1[C@@H]2CC[C@H]1C[C@@H](OC(=O)C(CO)c1ccccc1)C2` (some centres unmarked) [Atropine sulfate monohydrate]: −0.9654. On the same count and under the same terms, next, `CC1=CC(=O)C2=C(C)C[C@H](O)[C@@H]3[C@H](OC(=O)[C@H]3C)[C@H]12` [Austricine hydrate]: −0.411; `OC(c1ccccc1)(c1ccccc1)C1CCNCC1` [Azacyclonol]: 0.5179. Still for that read-out and setting: under `Cc1n[nH]c(=O)[nH]c1=O` [Azathymine, 6] stands −0.5337. In the case of `CCC1(C)CC(=O)NC(=O)C1` [Bemegride], the z.score.t is recorded as 0.3241. The same measure, in the same setting: next, `CC(C)(C)CC(C)(C)c1ccc(OCCOCC[N+](C)(C)Cc2ccccc2)cc1` [Benzethonium chloride]: −1.091; `CC[C@H](CC[C@@H](C)[C@H]1CC[C@H]2[C@@H]3CC=C4C[C@@H](O)CC[C@]4(C)[C@H]3CC[C@]12C)C(C)C` [Beta-sistosterol]: 0.1543; `CN1CCc2cc3c(cc2[C@H]1[C@@H]1OC(=O)c2c1ccc1c2OCO1)OCO3` [Bicuculline (+)]: 0.5437. On the same count and under the same terms, under `COc1cc2c(cc1O)C[C@H]1c3c(cc(O)c(OC)c3-2)CCN1C` [Boldine] stands 0.767.

The test is the same for the next values; noted with them: HTS viability of hPSC-SCs in the presence of 30 mM glucose; Prestwick library; Table S4.
For the compound `OC[C@H]1O[C@@H](Oc2ccc(O)cc2)[C@H](O)[C@@H](O)[C@@H]1O` [Arbutin], the z.score.t was −0.2611. In the case of `NC(N)=NCCCCN=C(N)N` [Arcaine sulfate], the z.score.t is −0.7567. Same read-out and setting: next, `C[C@@H]1CC[C@H]2[C@@H](C)C(=O)O[C@@H]3O[C@@]4(C)CC[C@@H]1[C@]32OO4` [Artemisinin]: −0.5919; `CCCNC(C)C(=O)Nc1c(C)csc1C(=O)OC` (centres unmarked) [Articaine hydrochloride]: 0.8481. The same measure, in the same setting: next, `O=C1O[C@H]([C@@H](O)CO)C(O)=C1O` [Ascorbic acid]: −0.7233; `COc1ccc(CCN2CCC(Nc3nc4ccccc4n3Cc3ccc(F)cc3)CC2)cc1` [Astemizole]: −1.866; `O=C1C(O)=C([C@H]2CC[C@H](c3ccc(Cl)cc3)CC2)C(=O)c2ccccc21` [Atovaquone]: −1.62. Same read-out and setting: next, `COc1ccc(CC2c3cc(OC)c(OC)cc3CC[N+]2(C)CCC(=O)OCCCCCOC(=O)CC[N+]2(C)CCc3cc(OC)c(OC)cc3C2Cc2ccc(OC)c(OC)c2)cc1OC` (centres unmarked) [Atracurium besylate]: 0.5041. As to `Nc1ncn([C@@H]2O[C@H](CO)[C@@H](O)[C@H]2O)c(=O)n1` [Azacytidine-5], the z.score.t is recorded as −2.144. Take `Nc1nc(O)c2[nH]nnc2n1` [Azaguanine-8]: the z.score.t is given as −1.365. Take `O=C(CCCN1CCN(c2ccccn2)CC1)c1ccc(F)cc1` [Azaperone]: the z.score.t is −0.9039. Same read-out and setting: next, `CCCC1C(=O)N2C(N(C)C)=Nc3ccc(C)cc3N2C1=O` (centres unmarked) [Azapropazone]: 1.176; `Cn1cnc([N+](=O)[O-])c1Sc1ncnc2nc[nH]c12` [Azathioprine]: 0.4486; `CC1(C)S[C@@H]2[C@H](NC(=O)[C@H](NC(=O)N3CCNC3=O)c3ccccc3)C(=O)N2[C@H]1C(=O)O` [Azlocillin sodium salt]: 1.635. On to `C[C@H]1[C@H](NC(=O)/C(=N\OC(C)(C)C(=O)O)c2csc(N)n2)C(=O)N1S(=O)(=O)O` [Aztreonam], for which the z.score.t was found to be 1.36.

On to `CCOC(=O)OC(C)OC(=O)[C@@H]1N2C(=O)[C@@H](NC(=O)[C@H](N)c3ccccc3)[C@H]2SC1(C)C` (some centres unmarked) [Bacampicillin hydrochloride], for which the z.score.t is 0.3231.

Turning to `CC[C@H](C)[C@H](N)C1=N[C@H](C(=O)N[C@@H](CC(C)C)C(=O)N[C@H](CCC(=O)O)C(=O)N[C@H](C(=O)N[C@H]2CCCCNC(=O)[C@H](CC(N)=O)NC(=O)[C@@H](CC(=O)O)NC(=O)[C@H](Cc3cnc[nH]3)NC(=O)[C@@H](Cc3ccccc3)NC(=O)[C@H]([C@@H](C)CC)NC(=O)[C@@H](CCCN)NC2=O)[C@@H](C)CC)CS1` [Bacitracin] (HELM PEPTIDE1{[CC[C@H](C)[C@H](N)C1=N[C@H](C(=O)[*:2])CS1].L.[dE].I.K.[NCCC[C@@H](N[*:1])C(=O)[*:2]].I.[dF].H.[dD].N}$PEPTIDE1,PEPTIDE1,5:R3-11:R2$$$V2.0), the z.score.t is on record as 1.163. Take `O=C(O)CCNC(=O)c1ccc(/N=N/c2ccc(O)c(C(=O)O)c2)cc1` [Balsalazide Sodium]: the z.score.t worked out at 0.7914.

`CN(C)C(=O)Oc1cc(OC(=O)N(C)C)cc(C(O)CNC(C)(C)C)c1` (centres unmarked) [Bambuterol hydrochloride]: the z.score.t was −0.5919.

As for `CCC(=O)OCC(=O)[C@@]1(OC(=O)CC)[C@@H](C)C[C@H]2[C@@H]3CCC4=CC(=O)C=C[C@]4(C)[C@@]3(Cl)[C@@H](O)C[C@@]21C` [Beclomethasone dipropionate], the z.score.t was −0.2136.

As to `NS(=O)(=O)c1cc2c(cc1C(F)(F)F)NC(Cc1ccccc1)NS2(=O)=O` (centres unmarked) [Bendroflumethiazide], the z.score.t is given as −1.107. On the same count and under the same terms, next, `CC(Cc1cccc(C(F)(F)F)c1)NCCOC(=O)c1ccccc1` (centres unmarked) [Benfluorex hydrochloride]: 1.095; `C/C(=C(\CCOP(=O)(O)O)SC(=O)c1ccccc1)N(C=O)Cc1cnc(C)nc1N` [Benfotiamine]: −0.1239; `CCCCOc1cc(C(=O)OCCN(CC)CC)ccc1N` [Benoxinate hydrochloride]: 0.05523. On the same count and under the same terms, next, `O=C(CCCN1CCC(n2c(O)nc3ccccc32)CC1)c1ccc(F)cc1` [Benperidol]: 0.1556; `NC(CO)C(=O)NNCc1ccc(O)c(O)c1O` (centres unmarked) [Benserazide hydrochloride]: −0.2359. Turning to `NC(=NCc1ccccc1)NC(=O)c1nc(Cl)c(N)nc1N` [Benzamil hydrochloride], the z.score.t is on record as −1.515.

In the case of `CC1(C)S[C@@H]2[C@H](NC(=O)Cc3ccccc3)C(=O)N2[C@H]1C(=O)O.CC1(C)S[C@@H]2[C@H](NC(=O)Cc3ccccc3)C(=O)N2[C@H]1C(=O)O.c1ccc(CNCCNCc2ccccc2)cc1` [Benzathine benzylpenicillin], the z.score.t is given as −0.08998. The same measure, in the same setting: next, `CCOC(=O)c1ccc(N)cc1` [Benzocaine]: −0.8317; `CCCCNc1ccc(C(=O)OCCOCCOCCOCCOCCOCCOCCOCCOCCOC)cc1` [Benzonatate]: 0.6386.

For the compound `NS(=O)(=O)c1cc2c(cc1Cl)N=C(CSCc1ccccc1)NS2(=O)=O` [Benzthiazide], the z.score.t is given as 0.3022. On the same count and under the same terms, next, `CN(C)CCCOc1nn(Cc2ccccc2)c2ccccc12` [Benzydamine hydrochloride]: −1.272.

As for `CC1(C)S[C@@H]2[C@H](NC(=O)Cc3ccccc3)C(=O)N2[C@H]1C(=O)O` [Benzylpenicillin sodium], the z.score.t is −1.3. With `C[N+](C)(CCOc1ccccc1)Cc1ccccc1.O=C([O-])c1cc2ccccc2cc1O` [Bephenium hydroxynaphthoate], the z.score.t was found to be 0.5158. On the same count and under the same terms, under `CC(C)COCC(CN(Cc1ccccc1)c1ccccc1)N1CCCC1` (centres unmarked) [Bepridil hydrochloride] stands −0.5726; under `COc1ccc2cc3[n+](cc2c1OC)CCc1cc2c(cc1-3)OCO2` [Berberine chloride], 1.018; under `COc1c(O)cc2c(c1O)[C@@H]1O[C@H](CO)[C@@H](O)[C@H](O)[C@H]1OC2=O` [Bergenin monohydrate], 1.238. Still for that read-out and setting: under `CNCCc1ccccn1.CS(=O)(=O)O.CS(=O)(=O)O` [Betahistine mesylate] stands −0.6301.

Regarding `C[C@H]1C[C@H]2[C@@H]3CCC4=CC(=O)C=C[C@]4(C)[C@@]3(F)[C@@H](O)C[C@]2(C)[C@@]1(O)C(=O)CO` [Betamethasone], the z.score.t is listed as 0.8711.

As for `CC(C)NCC(O)COc1ccc(CCOCC2CC2)cc1` (centres unmarked) [Betaxolol hydrochloride], the z.score.t is recorded as −0.5337.

Take `NCCc1cc[nH]n1` [Betazole hydrochloride]: the z.score.t was found to be 1.681.

In the case of `CC(C[N+](C)(C)C)OC(N)=O` (centres unmarked) [Bethanechol chloride], the z.score.t amounted to 0.3236. Same read-out and setting: under `C[N+]1(C)C[C@H](O)C[C@H]1C(=O)[O-]` [Betonicine] stands 1.194; under `C=C(C)[C@@H]1CC[C@]2(CO)CC[C@]3(C)[C@H](CC[C@@H]4[C@@]5(C)CC[C@H](O)C(C)(C)[C@@H]5CC[C@]43C)[C@@H]12` [Betulin], −1.025. The same measure, in the same setting: next, `C=C(C)[C@@H]1CC[C@]2(C(=O)O)CC[C@]3(C)[C@H](CC[C@@H]4[C@@]5(C)CC[C@H](O)C(C)(C)[C@@H]5CC[C@]43C)[C@@H]12` [Betulinic acid]: −1.832; `CC(C)(Oc1ccc(CCNC(=O)c2ccc(Cl)cc2)cc1)C(=O)O` [Bezafibrate]: 1.266; `O=C(O)CCCC[C@@H]1SC[C@@H]2NC(=O)N[C@@H]21` [Biotin]: 0.2189.

Turning to `OC(CCN1CCCCC1)(c1ccccc1)C1CC2C=CC1C2` (centres unmarked) [Biperiden hydrochloride], the z.score.t is 0.04918.

Regarding `CC(=O)Oc1ccc(C(c2ccc(OC(C)=O)cc2)c2ccccn2)cc1` [Bisacodyl], the z.score.t was 0.4849. As to `CC(C)NCC(O)COc1ccc(COCCOC(C)C)cc1` (centres unmarked) [Bisoprolol fumarate], the z.score.t is −0.1003. The same measure, in the same setting: next, `CC[N+](C)(C)Cc1ccccc1Br` [Bretylium tosylate]: −0.3895; `CCN[C@H]1CN(CCCOC)S(=O)(=O)c2sc(S(N)(=O)=O)cc21` [Brinzolamide]: 0.7491; `CCN(CC)CCNC(=O)c1cc(Br)c(N)cc1OC` [Bromopride]: −0.3895. On the same count and under the same terms, under `O=C(CCCN1CCC(O)(c2ccc(Br)cc2)CC1)c1ccc(F)cc1` [Bromperidol] stands 1.239.
